According to publication PMC9656955, “The Novel Class IIa Selective Histone Deacetylase Inhibitor YAK540 Is Synergistic with Bortezomib in Leukemia Cell Lines” (International Journal of Molecular Sciences, 2022):

Legend:
Type in all cases: biochemical
[1] = molecular target: T1, HDAC 8 (Homo sapiens, UniProt Q9BY41); experiment: recombinant enzyme fluorogenic assay, Boc-Lys-(Tfa)-AMC substrate; details: recombinant hdac 8; read-out: YAK540 / IC50 (pIC50 ±SEM) (converted)
T1 construct: gene HDAC8
T1 sequence (Q9BY41 1-377): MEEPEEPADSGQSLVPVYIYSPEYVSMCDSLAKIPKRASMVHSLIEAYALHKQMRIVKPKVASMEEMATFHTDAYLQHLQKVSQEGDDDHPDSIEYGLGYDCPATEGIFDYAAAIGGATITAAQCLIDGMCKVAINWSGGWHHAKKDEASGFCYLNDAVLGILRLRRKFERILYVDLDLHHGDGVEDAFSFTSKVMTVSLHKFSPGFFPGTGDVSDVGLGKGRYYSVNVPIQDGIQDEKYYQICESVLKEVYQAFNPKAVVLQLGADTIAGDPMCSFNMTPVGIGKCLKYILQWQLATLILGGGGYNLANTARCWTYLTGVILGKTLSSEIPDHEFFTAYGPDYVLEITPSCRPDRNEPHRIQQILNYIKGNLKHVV

[2] = molecular target: T2, HDAC 2 (Homo sapiens, UniProt Q92769); experiment: recombinant enzyme fluorogenic assay, Boc-Lys(Ac)-AMC substrate; details: recombinant hdac 2; read-out: YAK540 / IC50 (pIC50 ±SEM) (converted)
T2 construct: gene HDAC2

[3] = molecular target: T3, HDAC 6 (Homo sapiens, UniProt Q9UBN7); experiment: as above; details: recombinant hdac 6; read-out: YAK540 / IC50 (pIC50 ±SEM) (converted)
T3 construct: gene HDAC6
T3 sequence (Q9UBN7 1-1215): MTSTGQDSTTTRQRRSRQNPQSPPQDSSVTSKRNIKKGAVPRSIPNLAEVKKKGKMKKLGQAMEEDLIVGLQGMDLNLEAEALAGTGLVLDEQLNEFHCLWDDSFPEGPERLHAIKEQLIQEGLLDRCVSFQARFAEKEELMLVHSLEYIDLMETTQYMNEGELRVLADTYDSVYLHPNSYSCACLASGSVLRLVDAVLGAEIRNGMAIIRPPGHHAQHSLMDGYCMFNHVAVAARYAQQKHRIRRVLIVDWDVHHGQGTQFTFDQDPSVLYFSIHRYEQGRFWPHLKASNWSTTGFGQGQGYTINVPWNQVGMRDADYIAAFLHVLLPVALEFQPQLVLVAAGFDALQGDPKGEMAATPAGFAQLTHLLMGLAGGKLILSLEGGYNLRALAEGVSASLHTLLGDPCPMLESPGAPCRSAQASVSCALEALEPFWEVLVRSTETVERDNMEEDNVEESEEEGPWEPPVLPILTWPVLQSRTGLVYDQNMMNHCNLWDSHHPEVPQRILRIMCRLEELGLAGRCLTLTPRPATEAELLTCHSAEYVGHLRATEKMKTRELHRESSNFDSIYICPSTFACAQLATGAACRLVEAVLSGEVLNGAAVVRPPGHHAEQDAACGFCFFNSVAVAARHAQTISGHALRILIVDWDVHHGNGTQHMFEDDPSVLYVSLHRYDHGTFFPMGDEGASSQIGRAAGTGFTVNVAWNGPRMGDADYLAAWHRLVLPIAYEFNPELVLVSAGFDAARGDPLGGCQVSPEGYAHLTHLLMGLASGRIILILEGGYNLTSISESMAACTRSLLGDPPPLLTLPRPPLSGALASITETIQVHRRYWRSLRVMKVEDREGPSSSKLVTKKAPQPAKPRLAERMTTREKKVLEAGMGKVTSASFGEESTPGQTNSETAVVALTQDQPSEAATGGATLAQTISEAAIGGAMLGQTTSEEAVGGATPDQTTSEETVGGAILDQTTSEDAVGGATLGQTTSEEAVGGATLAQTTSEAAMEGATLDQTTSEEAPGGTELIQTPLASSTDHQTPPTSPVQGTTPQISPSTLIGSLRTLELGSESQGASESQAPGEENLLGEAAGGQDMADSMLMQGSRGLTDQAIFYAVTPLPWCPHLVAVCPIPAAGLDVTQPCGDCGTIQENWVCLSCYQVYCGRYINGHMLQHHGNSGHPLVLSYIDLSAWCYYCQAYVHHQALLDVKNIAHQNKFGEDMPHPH

[4] = molecular target: T4, HDAC 4 (Homo sapiens, UniProt P56524); experiment: recombinant enzyme fluorogenic assay, Boc-Lys-(Tfa)-AMC substrate; details: recombinant hdac 4; read-out: YAK540 / IC50 (pIC50 ±SEM) (converted)
T4 construct: gene HDAC4
T4 sequence (P56524 whole entry): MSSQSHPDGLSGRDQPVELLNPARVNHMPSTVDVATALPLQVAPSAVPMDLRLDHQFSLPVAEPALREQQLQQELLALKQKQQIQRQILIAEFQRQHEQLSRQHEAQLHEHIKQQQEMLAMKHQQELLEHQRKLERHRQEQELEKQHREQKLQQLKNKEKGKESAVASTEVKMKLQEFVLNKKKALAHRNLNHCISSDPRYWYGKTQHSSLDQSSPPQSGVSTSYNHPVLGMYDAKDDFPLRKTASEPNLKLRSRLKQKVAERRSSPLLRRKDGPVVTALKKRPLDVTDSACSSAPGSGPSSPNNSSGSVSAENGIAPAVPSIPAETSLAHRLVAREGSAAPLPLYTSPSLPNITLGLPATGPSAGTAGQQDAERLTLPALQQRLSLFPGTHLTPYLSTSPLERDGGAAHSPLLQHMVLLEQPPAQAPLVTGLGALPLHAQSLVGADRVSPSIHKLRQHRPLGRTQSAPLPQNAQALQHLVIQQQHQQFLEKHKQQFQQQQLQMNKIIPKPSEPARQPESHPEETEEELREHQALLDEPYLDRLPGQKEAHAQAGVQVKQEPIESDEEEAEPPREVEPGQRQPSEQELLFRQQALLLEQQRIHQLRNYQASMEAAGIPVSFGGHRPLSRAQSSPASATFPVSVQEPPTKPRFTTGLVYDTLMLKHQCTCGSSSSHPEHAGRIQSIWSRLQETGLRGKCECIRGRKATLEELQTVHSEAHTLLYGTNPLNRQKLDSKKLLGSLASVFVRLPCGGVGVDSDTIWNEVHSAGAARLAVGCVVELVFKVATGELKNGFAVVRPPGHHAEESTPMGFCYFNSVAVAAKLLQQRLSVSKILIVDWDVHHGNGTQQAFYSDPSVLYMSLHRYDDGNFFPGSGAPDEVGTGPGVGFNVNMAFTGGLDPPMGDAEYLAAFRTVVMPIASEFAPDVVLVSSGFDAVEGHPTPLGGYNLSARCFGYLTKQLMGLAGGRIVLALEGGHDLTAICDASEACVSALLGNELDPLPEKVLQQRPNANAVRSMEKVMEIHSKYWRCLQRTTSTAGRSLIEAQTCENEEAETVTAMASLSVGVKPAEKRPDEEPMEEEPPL

T2 sequence (Q92769 whole entry): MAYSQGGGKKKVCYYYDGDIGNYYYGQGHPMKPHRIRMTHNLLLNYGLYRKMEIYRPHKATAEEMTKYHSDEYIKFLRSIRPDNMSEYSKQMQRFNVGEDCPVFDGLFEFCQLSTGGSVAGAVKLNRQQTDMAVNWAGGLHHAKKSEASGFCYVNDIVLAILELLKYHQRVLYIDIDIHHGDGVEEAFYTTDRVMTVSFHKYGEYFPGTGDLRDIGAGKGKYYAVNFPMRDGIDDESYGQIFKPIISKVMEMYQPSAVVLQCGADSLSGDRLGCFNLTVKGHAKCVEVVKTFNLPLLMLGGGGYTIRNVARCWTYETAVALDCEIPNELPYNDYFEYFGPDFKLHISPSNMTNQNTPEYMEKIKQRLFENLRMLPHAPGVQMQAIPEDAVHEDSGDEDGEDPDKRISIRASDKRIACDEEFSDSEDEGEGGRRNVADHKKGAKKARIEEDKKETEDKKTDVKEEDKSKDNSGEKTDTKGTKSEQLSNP

- IC50 [1]: 9.39 µM
- IC50 [2]: 30.2 µM
- IC50 [3]: 11.4 µM
- IC50 [4]: 0.114 µM
SMILES: O=C(NOCCN1CCCCC1)c1ccc(-c2noc(C(F)(F)F)n2)cc1 [YAK540]
